Measured values: PMC10381486, “Hydantoanabaenopeptins from Lake Kinneret Microcystis Bloom, Isolation, and Structure Elucidation of the Possible Intermediates in the Anabaenopeptins Biosynthesis” (Marine Drugs, 2023)

Tests used:
trypsin = molecular target: T1, trypsin (Bos taurus, UniProt P00760); test: Trypsin inhibition assay (BAPNA substrate, 96-well plate); assay type: biochemical; settings: Tris buffer pH 7.5, 5 min pre-incubation at 37 °C, kinetic absorbance at 405 nm over 30 min
T1 construct: gene PRSS1
T1 sequence (P00760 24-246): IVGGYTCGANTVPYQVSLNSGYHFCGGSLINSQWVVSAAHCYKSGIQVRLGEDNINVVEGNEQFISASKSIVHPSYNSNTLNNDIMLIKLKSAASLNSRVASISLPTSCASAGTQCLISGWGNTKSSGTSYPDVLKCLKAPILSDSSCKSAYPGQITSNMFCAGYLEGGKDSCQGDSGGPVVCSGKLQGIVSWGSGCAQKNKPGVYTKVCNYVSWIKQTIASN
Experimental: The samples for biological assays were dissolved in DMSO at a concentration of 1 mg/mL and were tested for inhibition of the proteases at a single concentration: 1 […]. Assays were performed in a 96-well plate format.
The assay was performed in a Tris buffer (0.6 g Tris HCl in 100 mL H2O, pH 7.5). Benzoyl-L-arginine-p-nitroanilide hydrochloride (BAPNA), the trypsin substrate, was dissolved at 1 mg/mL in 1:9 DMSO/buffer. The enzyme was dissolved in buffer at 1 mg/mL. To each well were added 100 μL of buffer, 10 μL of enzyme, and 10 μL of sample. The plate was placed in the spectrophotometer at 37 °C. After 5 min, 100 μL of substrate solution was added to each well, and the plate was placed in the spectrophotometer for the kinetic measurement of the absorbance intensity over 30 min at a wavelength of 405 nm.

chymotrypsin = chymotrypsin (Bos taurus, UniProt P00766); test: Chymotrypsin inhibition assay (SGGPNA substrate, 96-well plate); assay type: biochemical; settings: Tris buffer pH 7.5, 5 min pre-incubation at 37 °C, kinetic absorbance at 405 nm over 30 min
Experimental: […] Assays were performed in a 96-well plate format.
The assay was performed in a Tris buffer (0.6 gr TRIS HCl/100 mL H2O, pH 7.5). The enzyme and the substrate Suc-Gly-Gly-phenylalanine-p-nitroanilide (SGGPNA) were dissolved in the buffer at a concentration of 1 mg/mL. To each well were added 100 μL of buffer, 10 μL of enzyme, and 10 μL of sample. Then, the plate was placed in the spectrophotometer for a 5 min incubation at 37 °C. Thereafter, to each well, 100 μL of substrate solution was added, and the plate was placed in the spectrophotometer for the kinetic measurement of the absorbance intensity over 30 min at a wavelength of 405 nm.

## Hydantoanabaenopeptin B [Compound 2]
trypsin; single concentration 55.6 μM
  inhibition of the serine protease trypsin: nonactive

## cyclo-(Phe-NMeAla-Hty-Val-Lys-ε-NH)- (lariat or depsi) [Compound 1, Hydantoanabaenopeptin A, hydantoin derivative of anabaenopeptin A isolated from Lake Kinneret Microcystis bloom]
chymotrypsin; single concentration 55.1 μM
  inhibition of the serine protease chymotrypsin: nonactive

## Hydanto-oscillamide Y [Compound 4]
chymotrypsin; single concentration 54.2 μM
  inhibition of the serine protease chymotrypsin: nonactive

## Phe, NMeAla, Hty, Ile, Lys, and Arg (lariat or depsi) [Compound 3, Hydantoanabaenopeptin F, hydantoin derivative of anabaenopeptin F isolated from Lake Kinneret Microcystis bloom]
trypsin; single concentration 54.6 μM
  inhibition of the serine protease trypsin: nonactive

## hydanto-Dht-[Lys-Val-Hty-NMeAla-Phe] (lariat or depsi) [Compound 6, ^1[Dht]-hydantoanabaenopeptin A, hydantoin derivative of 1[Dht]-anabaenopeptin A]
chymotrypsin; single concentration 53.3 μM
  inhibition of the serine protease chymotrypsin: nonactive

## Dht-CO-cyclo-[Lys-Val-Hty-NMeAla-Phe] (lariat or depsi) [Compound 5, ^1[Dht]-anabaenopeptin A, new anabaenopeptin with dihomotyrosine at position 1]
chymotrypsin; single concentration 53.3 μM
  inhibition of the serine protease chymotrypsin: nonactive
